Molecules are shown by their SMILES.

A word on the inhibition: it is the relative decrease from the control value, in per cent.

The target of this assay is T1, His-hMAGL (recombinant polyhistidine tagged human MAGL protein) (Homo sapiens, UniProt Q99685).
T1 construct: made in house; host or cells: E. coli BL21(DE3)
T1 sequence (Q99685 1-303): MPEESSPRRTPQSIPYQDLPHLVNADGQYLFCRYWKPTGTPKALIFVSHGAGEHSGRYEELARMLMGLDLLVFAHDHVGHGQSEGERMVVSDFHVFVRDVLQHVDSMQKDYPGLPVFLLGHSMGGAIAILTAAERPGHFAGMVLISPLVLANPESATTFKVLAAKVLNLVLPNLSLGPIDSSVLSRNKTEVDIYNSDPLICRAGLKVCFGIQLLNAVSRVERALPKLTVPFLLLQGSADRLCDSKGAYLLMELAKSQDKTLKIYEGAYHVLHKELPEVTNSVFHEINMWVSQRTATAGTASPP
As to the kind of experiment: Measurement of MAGL inhibitory activity (arachidonic acid production from 2-arachidonylglycerol, RapidFire-mass spectrometry). Format: biochemical. Particulars: MAGL inhibitory rate, test compound 10 μM, 60 min preincubation, 2-arachidonylglycerol substrate. The method, then: The His-hMAGL obtained above was diluted with enzyme reaction buffer (10 mM Tris-HCl, pH 7.5, 1 mM EDTA, 0.025 (w/v) % Triton X-100, 0.01% Bovine serum albumin) to a concentration of 7.5 ng/mL. […] Thereafter, to each well was added 5 μL of 150 μM 2-arachidonylglycerol (Tocris Bioscience), and the mixture was incubated at room temperature for 10 min. Then, 10 μL of 2% formic acid (Wako Pure Chemical Industries, Ltd.) was added to stop the reaction. Furthermore, acetonitrile (50 μL) containing 3 μM arachidonic acid-d8 (Cayman Chemical Company) was added and the mixture was stirred.
The amount of arachidonic acid in the obtained enzyme reaction mixture was calculated by measuring by RapidFire-mass spectrometry and correcting by the amount of arachidonic acid-d8. High Throughput online solid phase extraction was performed using RapidFire 300™ system (Agilent Technologies, Inc.). Samples were loaded on SPE C4 cartridge (Agilent Technologies, Inc.) and desalted with 0.2 (v/v) % acetic acid (Wako Pure Chemical Industries, Ltd.) in ultrapure water/acetonitrile (70/30, v/v) at a flow rate of 1.5 mL/min, eluted at a flow rate of 0.5 mL/min with 0.2 (v/v) % acetic acid dissolved in acetonitrile/ultrapure water (90/10, v/v), and injected into the mass spectrometry part. The injection needle was washed with ultrapure water (500 millisecond) and acetonitrile (500 millisecond) to minimize carry-over. […] The RapidFire300 system was controlled by RapidFire UI software version 3.6 (Agilent Technologies, Inc.).
The mass spectrometry of the resultant product was performed using API4000™ triple quadrupole mass spectrometer (AB SCIEX) equipped with an electrospray ion sauce (TurboIon Spray™) in a negative selected reaction monitoring (SRM) mode. The conditions of SRM are shown below. The parameters of the instrument were optimized as follows: capillary temperature 600° C., ion spray voltage −4.5 kV, collision gas 8, curtain gas 15 psi, ion source gas 1 60 psi, ion source gas 2 60 psi. The mass spectrometer was controlled by Analyst™ software version 1.5.1 (AB SCIEX). The peak area integration was analyzed using RapidFire integrator software version 3.6 (Agilent Technologies, Inc.).
MAGL inhibitory rate (%) was calculated according to the following calculation formula. (1-(arachidonic acid production amount of test compound addition group−arachidonic acid production amount of enzyme-free group)÷(arachidonic acid production amount of test compound-free group−arachidonic acid production amount of enzyme-free group))×100

Turning to `O=C1NC2(CO1)CN(C(=O)[C@H]1C[C@@H](OCc3ccc(C(F)(F)F)cc3F)C1)C2` (stereo in doubt) [Example 355, 2-((cis-3-((2-fluoro-4-(trifluoromethyl)benzyl)oxy)cyclobutyl)carbonyl)-7-oxa-2,5-diazaspiro[3.4]octan-6-one], the “% inhibition (10 μM)” value (10 µM) was found to be 99%. As to `CC1(C2CCN(C(=O)N3CC4(CCC(=O)N4)C3)CC2)Cc2ccccc2O1` (stereo not shown) [Example 2, 2-((4-(2-methyl-2,3-dihydro-1-benzofuran-2-yl)piperidin-1-yl)carbonyl)-2,5-diazaspiro[3.4]octan-6-one], the inhibition at 10 µM came out at 100%. On the same count and under the same terms, in the case of `O=C1CCC2(CN(C(=O)N3CCC(COc4ccc(C(F)(F)F)cc4Cl)CC3)C2)N1` [Example 3, 2-((4-((2-chloro-4-(trifluoromethyl)phenoxy)methyl)piperidin-1-yl)carbonyl)-2,5-diazaspiro[3.4]octan-6-one] it was 102%.

For the molecule `CC(Oc1ccc(F)cc1Cl)C1CN(C(=O)N2CC3(CCC(=O)N3)C2)C1` (stereo not shown) [Example 4, 2-((3-(1-(2-chloro-4-fluorophenoxy)ethyl)azetidin-1-yl)carbonyl)-2,5-diazaspiro[3.4]octan-6-one], the inhibition at 10 µM is 98%.

Take `O=C1CCC2(CN(C(=O)c3ccc(COc4ccccc4C(F)(F)F)cc3)C2)N1` [Example 5, 2-(4-((2-(trifluoromethyl)phenoxy)methyl)benzoyl)-2,5-diazaspiro[3.4]octan-6-one]: the inhibition at 10 µM came out at 99%. The same measure, in the same setting: in the case of `O=C1CCC2(CN(C(=O)c3ccc(OCc4ccccc4)cc3)C2)N1` [Example 6, 2-(4-(benzyloxy)benzoyl)-2,5-diazaspiro[3.4]octan-6-one] it was 87%; in that of `CC(Oc1ccc(F)cc1Cl)C1CCN(C(=O)N2CC3(CCC(=O)N3)C2)CC1` (stereo not shown) [Example 7, 2-((4-(1-(2-chloro-4-fluorophenoxy)ethyl)piperidin-1-yl)carbonyl)-2,5-diazaspiro[3.4]octan-6-one], 103%. With `O=C1CCC2(CN(C(=O)N3CC(COc4ccc(C(F)(F)F)cc4F)C3)C2)N1` [Example 8, 2-((3-((2-fluoro-4-(trifluoromethyl)phenoxy)methyl)azetidin-1-yl)carbonyl)-2,5-diazaspiro[3.4]octan-6-one], the inhibition at 10 µM turned out to be 100%. Still for that read-out and setting: in the case of `O=C1CCC2(CN(C(=O)N3CC(OCc4ccc(C(F)(F)F)cc4F)C3)C2)N1` [Example 9, 2-((3-((2-fluoro-4-(trifluoromethyl)benzyl)oxy)azetidin-1-yl)carbonyl)-2,5-diazaspiro[3.4]octan-6-one] it was 98%. Still for that read-out and setting: in the case of `CC(Oc1ccc(C(F)(F)F)cc1F)C1CN(C(=O)N2CC3(CCC(=O)N3)C2)C1` (stereo not shown) [Example 10, 2-((3-(1-(2-fluoro-4-(trifluoromethyl)phenoxy)ethyl)azetidin-1-yl)carbonyl)-2,5-diazaspiro[3.4]octan-6-one] it was 101%; in that of `O=C1CCC2(CN(C(=O)c3ccc(-c4ccccc4)cc3)C2)N1` [Example 12, 2-(biphenyl-4-ylcarbonyl)-2,5-diazaspiro[3.4]octan-6-one], 92%; in that of `O=C1CCC2(CN(C(=O)c3ccc4nc(-c5ccc(F)cc5)oc4c3)C2)N1` [Example 13, 2-((2-(4-fluorophenyl)-1,3-benzoxazol-6-yl)carbonyl)-2,5-diazaspiro[3.4]octan-6-one], 89%. The same measure, in the same setting: in the case of `O=C1CCC2(CN(C(=O)c3ccc4c(ccn4-c4ccc(C(F)(F)F)cn4)c3)C2)N1` [Example 14, 2-((1-(5-(trifluoromethyl)pyridin-2-yl)-1H-indol-5-yl)carbonyl)-2,5-diazaspiro[3.4]octan-6-one] it was 96%. On to `O=C1CCC2(CN(C(=O)N3CC(COc4ccc(Br)cc4F)C3)C2)N1` [Example 16, 2-((3-((4-bromo-2-fluorophenoxy)methyl)azetidin-1-yl)carbonyl)-2,5-diazaspiro[3.4]octan-6-one], for which the inhibition at 10 µM came to 104%. Same read-out and setting: as for `O=C1CCC2(CN(C(=O)N3CC(COc4ccc(C(F)(F)F)cc4Cl)C3)C2)N1` [Example 17, 2-((3-((2-chloro-4-(trifluoromethyl)phenoxy)methyl)azetidin-1-yl)carbonyl)-2,5-diazaspiro[3.4]octan-6-one], the figure is 98%. Same read-out and setting: in the case of `O=C1CCC2(CN(C(=O)N3CC(COc4ccc5c(c4)CCCC5)C3)C2)N1` [Example 18, 2-((3-((5,6,7,8-tetrahydronaphthalen-2-yloxy)methyl)azetidin-1-yl)carbonyl)-2,5-diazaspiro[3.4]octan-6-one] it was 100%; in that of `O=C1CCC2(CN(C(=O)N3CC(COc4ccc5c(c4)CCC5)C3)C2)N1` [Example 19, 2-((3-((2,3-dihydro-1H-inden-5-yloxy)methyl)azetidin-1-yl)carbonyl)-2,5-diazaspiro[3.4]octan-6-one], 102%. On the same count and under the same terms, as for `O=C1CCC2(CN(C(=O)c3sc4cc(C(F)(F)F)ccc4c3Cl)C2)N1` [Example 20, 2-((3-chloro-6-(trifluoromethyl)-1-benzothiophen-2-yl)carbonyl)-2,5-diazaspiro[3.4]octan-6-one], the figure is 104%; as for `Cc1ccc(OCC2CN(C(=O)N3CC4(CCC(=O)N4)C3)C2)c(Cl)c1` [Example 21, 2-((3-((2-chloro-4-methylphenoxy)methyl)azetidin-1-yl)carbonyl)-2,5-diazaspiro[3.4]octan-6-one], 102%.

Take `O=C1CCC2(CN(C(=O)N3CC(COc4ccc(C(F)(F)F)c(F)c4)C3)C2)N1` [Example 22, 2-((3-((3-fluoro-4-(trifluoromethyl)phenoxy)methyl)azetidin-1-yl)carbonyl)-2,5-diazaspiro[3.4]octan-6-one]: the inhibition at 10 µM came out at 100%.

With `Cc1cc(F)ccc1-c1ccc(OCC2CN(C(=O)N3CC4(CCC(=O)N4)C3)C2)c(F)c1` [Example 23, 2-((3-(((3,4′-difluoro-2′-methylbiphenyl-4-yl)oxy)methyl)azetidin-1-yl)carbonyl)-2,5-diazaspiro[3.4]octan-6-one], the inhibition at 10 µM is 102%. Still for that read-out and setting: in the case of `O=C1CCC2(CN(C(=O)N3CC(COc4cc(Br)c(C(F)(F)F)cc4F)C3)C2)N1` [Example 24, 2-((3-((5-bromo-2-fluoro-4-(trifluoromethyl)phenoxy)methyl)azetidin-1-yl)carbonyl)-2,5-diazaspiro[3.4]octan-6-one] it was 103%; in that of `O=C1CCC2(CN(C(=O)[C@H]3C[C@@H](COc4ccc(F)cc4Cl)C3)C2)N1` [Example 25, 2-((cis-3-((2-chloro-4-fluorophenoxy)methyl)cyclobutyl)carbonyl)-2,5-diazaspiro[3.4]octan-6-one], 91%; in that of `O=C1CCC2(CN(C(=O)[C@H]3C[C@H](COc4ccc(F)cc4Cl)C3)C2)N1` [Example 26, 2-((trans-3-((2-chloro-4-fluorophenoxy)methyl)cyclobutyl)carbonyl)-2,5-diazaspiro[3.4]octan-6-one], 98%. Same read-out and setting: as for `O=C1CCC2(CN(C(=O)c3cccc(C(F)(F)c4ccccc4)c3)C2)N1` [Example 27, 2-(3-(difluoro(phenyl)methyl)benzoyl)-2,5-diazaspiro[3.4]octan-6-one], the figure is 94%.

On to `O=C1CCC2(CN(C(=O)c3ccc(C(F)(F)c4ccccc4)cc3)C2)N1` [Example 28, 2-(4-(difluoro(phenyl)methyl)benzoyl)-2,5-diazaspiro[3.4]octan-6-one], for which the inhibition at 10 µM is 97%. On the same count and under the same terms, as for `O=C1CCC2(CN(C(=O)N3CCC(C(F)(F)c4ccc(F)cc4)CC3)C2)N1` [Example 29, 2-((4-(difluoro(4-fluorophenyl)methyl)piperidin-1-yl)carbonyl)-2,5-diazaspiro[3.4]octan-6-one], the figure is 98%; as for `O=C1CCC2(CN(C(=O)c3cc4ccc(C(F)(F)F)cc4s3)C2)N1` [Example 30, 2-((6-(trifluoromethyl)-1-benzothiophen-2-yl)carbonyl)-2,5-diazaspiro[3.4]octan-6-one], 94%.
